Measurements from patent US20130005699A1, “METHODS AND PRODUCTS FOR TREATMENT OF DISEASES” (DMI ACQUISITION CORP., priority 2009, published 2013).

Legend:
HUVECs [1] = assay: HUVEC invasion (BioCoat Matrigel Invasion Chambers); type: cell-based, human; settings: 24 hours
Description: BioCoat Matrigel Invasion Chambers were purchased from BD Biosciences (San Jose, Calif.). Inserts were rehydrated at 37° C. with 500 μl HBSS for 2 hours prior to use in humidified incubator. Trypsinized HUVECs were washed twice with warm EGM-2 containing 0.1% FCS and added to the upper chamber of the invasion insert at 100,000 cells in a total volume of 250 μl. […]. Non-invasive cells were removed from the upper chamber with moistened cotton swabs and then the inserts were washed twice with HBSS. The inserts were then submerged in 10 μM calcein AM prepared in HBSS and incubated for 4 hours. Fluorescence was determined in a microplate reader at 485 nm excitation and 595 nm emission.
All data is presented as representative experiment done in triplicate. Differences between subsets were analyzed using student t-test in Microsoft Excel. P<0.05 was considered statistically significant.

HUVECs [2] = assay: HUVEC scratch migration assay; type: cell-based, human; settings: for Mean pixels (gap): 24 hours, diluent control 1264.00
Description: Passage 8 HUVECs, lot number 8750 (obtained from Lonza), were plated in 6-well plates (ICS BioExpress) in endothelial growth medium-2 (EGM-2) complete medium (obtained from Lonza). […] The monolayers were then “scratched” with a 1000 μl pipet tip and washed two times with warm EGM-2 medium. […] The wells were photographed again. The gaps were measured in each photograph using Adobe Photoshop software, and gap measurements are presented as the number of pixels in the gap.

[3] = test system: human retinal endothelial cells; assay: TER of endothelial cell monolayers (Example 4), retinal; type: cell-based; settings: Danazol 1.0 μM, TER measurements/cm^2 of insert, blank subtracted
Description: […]. Assays were also performed in the same manner using passage 8 human brain endothelial cells and passage 8 human umbilical vein endothelial cells.
An initial TER measurement was taken for each insert using EVOM^2 voltohmmeter connected to an STX100 electrode (both from World Precision Instruments). Measurements were also taken at 24, 48, 72 and 144 hours. All data are presented as TER measurements/cm^2 of insert with TER of blank inserts subtracted.

Akt = Akt phosphorylation (CASE ELISA kit for AKT S473) in retinal endothelial cells; type: cell-based, human; settings: 2 hours
Description: The cells were grown in a 25 cm^2 flask to near confluence in EGM-2 medium (Lonza, Walkersville, Md.) containing 2% fetal calf serum (Lonza). […] The plate was incubated at 37° C. with 5% CO2 for 24 hours. […] After this incubation, the cells were fixed immediately with 4% formaldehyde, refrigerated, and the extent of phosphorylation of Akt determined using the Akt Cellular Activation of Signaling ELISA Kit (CASE™ Kit for AKT 5473; SABiosciences, Frederick, Md.) following the manufacturer's protocols. The CASE™ Kit for AKT S473 quantifies the amount of activated (phosphorylated) Akt protein relative to total Akt protein in parallel assays using a conventional ELISA format with colorimetric detection. The Akt phosphorylation site is serine 473 and is recognized by one of the antibodies used in one of the two parallel assays to provide a measure of activated Akt protein. The other antibody used in the other parallel assay recognizes Akt to provide a measure of total Akt protein. Both primary antibodies are detected using a horseradish peroxidase-labeled secondary antibody. Addition of the manufacturer's Developing Solution for 10 minutes, followed by addition of the manufacturer's Stop Solution, produces the result which can be measured colorimetrically.

[4] = test system: human retinal endothelial cells; assay: ECIS resistance (Example 12), retinal cells
[5] = test system: human renal glomerular microvascular endothelial cells; assay: ECIS resistance (Example 12), glomerular cells; settings: danazol 1 μM alone
[6] = test system: human retinal endothelial cells; assay: Actin stress fiber formation (Example 11), retinal cells; settings: for F-actin staining pattern: danazol 1 μM alone
[7] = test system: human renal glomerular microvascular endothelial cells; assay: Actin stress fiber formation (Example 11), glomerular cells; settings: for F-actin staining pattern: danazol 1 μM alone
[8] = test system: human renal glomerular microvascular endothelial cells; assay: ECIS resistance (Example 13), glomerular cells, medium without dexamethasone
[9] = test system: human retinal endothelial cells; assay: Actin stress fiber formation, rhodamine-phalloidin staining, TNFα (Example 7); settings: 30 minutes
[10] = test system: human retinal endothelial cells; assay: TER of retinal endothelial cell monolayers with danazol and steroid receptor antagonists (Example 6); settings: 0.1 μM of each additive, background subtracted, divided by 0.33 cm^2
[11] = test system: human retinal endothelial cells; assay: TER of retinal endothelial cell monolayers with danazol, steroid receptor antagonists and hormones (Example 10); settings: 0.1 μM of each additive, background subtracted, divided by 0.33 cm^2
[12] = danazol 1 μM with TNFα 1 ng/ml, all times

Q: How did the “effect on FCS-induced cell invasion” value (HUVECs [1]; 10 μM) turn out when `C#C[C@]1(O)CC[C@H]2[C@@H]3CCC4=Cc5oncc5C[C@]4(C)[C@H]3CC[C@@]21C` [Danazol, 17α-pregna-2,4-dien-20-yno[2,3-d]-isoxazol-17β-ol] was run?
A: no effect

Q: What about the “effect on FCS-induced cell invasion” value (HUVECs [1]; 100 μM) of the same compound?
A: no effect

Q: And the “Mean pixels (gap)” value (HUVECs [2]; Danazol 10 μM)?
A: 1004.00 pixels

Q: What about the “Mean pixels (gap)” value (HUVECs [2]; Danazol 25 μM) of the same compound?
A: 1184.00 pixels

Q: What about the “Mean pixels (gap)” value (HUVECs [2]; Danazol 50 μM) of the same compound?
A: 895.33 pixels

Q: And the “Mean pixels (gap)” value (HUVECs [2]; Danazol 75 μM)?
A: 317.33 pixels

Q: What about the “Mean pixels (gap)” value (HUVECs [2]; Danazol 100 μM) of the same compound?
A: 178.67 pixels

Q: And the inhibition at 10 µM (HUVECs [2]; Homo sapiens, HUVEC, 24 h)?
A: 21.1%

Q: And the inhibition at 25 µM (HUVECs [2]; Homo sapiens, HUVEC, 24 h)?
A: 5.5%

Q: What about the inhibition at 50 µM (HUVECs [2]; Homo sapiens, HUVEC, 24 h) of the same compound?
A: 27.6%

Q: And the inhibition at 75 µM (HUVECs [2]; Homo sapiens, HUVEC, 24 h)?
A: 74.6%

Q: What about the inhibition at 100 µM (HUVECs [2]; Homo sapiens, HUVEC, 24 h) of the same compound?
A: 85.9%

Q: And the “TER at 0 Hours” value ([3]; None 32.3)?
A: 21.7

Q: What about the “TER at 24 Hours” value ([3]; None 96.0) of the same compound?
A: 132.3

Q: And the “TER at 48 Hours” value ([3]; None 144.4)?
A: 182.3

Q: What about the “TER at 72 Hours” value ([3]; None 148.0) of the same compound?
A: 217.7

Q: What about the “TER at 144 Hours” value ([3]; None 219.7) of the same compound?
A: 234.8

Q: And the “PERCENT INCREASE IN AKT PHOSPHORYLATION VERSUS CONTROL” value (Akt; 0.5 μM danazol)?
A: 73.8%

Q: And the “PERCENT INCREASE IN AKT PHOSPHORYLATION VERSUS CONTROL” value (Akt; 1.0 μM danazol)?
A: 66.7%

Q: And the “PERCENT INCREASE IN AKT PHOSPHORYLATION VERSUS CONTROL” value (Akt; 2.0 μM danazol)?
A: 101.6%

Q: What about the “PERCENT INCREASE IN AKT PHOSPHORYLATION VERSUS CONTROL” value (Akt; 5.0 μM danazol) of the same compound?
A: 40.5%

Q: What about the “PERCENT INCREASE IN AKT PHOSPHORYLATION VERSUS CONTROL” value (Akt; 10.0 μM danazol) of the same compound?
A: 115.3%

Q: What about the “PERCENT INCREASE IN AKT PHOSPHORYLATION VERSUS CONTROL” value (Akt; 20.0 μM danazol) of the same compound?
A: 161.3%

Q: And the “PERCENT INCREASE IN AKT PHOSPHORYLATION VERSUS CONTROL” value (Akt; 50.0 μM danazol)?
A: 98.6%

Q: What about the “start of increase of ECIS compared to untreated cells, after treatment” value ([4]; 1.0 μM danazol alone) of the same compound?
A: 1.5 to 2.0 h

Q: What about the “persistence of increased ECIS” value ([4]; 1 μM of each compound, monitored for 90 hours) of the same compound?
A: 5 h

Q: And the “period of greatest increase of ECIS” value [5]?
A: 60 to 90 h

Q: And the F-actin staining pattern ([6]; 15 minutes)?
A: perinuclear staining

Q: And the F-actin staining pattern ([6]; 3 hours)?
A: diffuse staining throughout the cells with ruffled edges on many of the cells

Q: What about the F-actin staining pattern ([6]; 24 hours) of the same compound?
A: staining similar to untreated controls

Q: And the “effect on S1P-induced cortical actin rings” value ([6]; danazol 1 μM with S1P 1 μM)?
A: seemed to enhance the cortical rings at 3 hours

Q: And the “effect on TNFα-induced stress fibers” value [6, 12]?
A: decreased the stress fiber formation and/or the thickness of the fibers at all times

Q: What about the F-actin staining pattern ([7]; 15 minutes) of the same compound?
A: perinuclear staining

Q: What about the F-actin staining pattern ([7]; 3 hours) of the same compound?
A: diffuse staining throughout the cells with ruffled edges on many of the cells

Q: What about the F-actin staining pattern ([7]; 24 hours) of the same compound?
A: staining similar to untreated controls

Q: And the “effect on S1P-induced cortical actin rings” value ([7]; danazol 1 μM with S1P 1 μM)?
A: seemed to enhance the cortical rings

Q: And the “effect on TNFα-induced stress fibers” value [7, 12]?
A: decreased the stress fiber formation and the thickness of the fibers at all times

Q: What about the “persistence of increased ECIS” value ([8]; danazol 1 μM alone) of the same compound?
A: about 90 hours

Q: What about the “start of increase of ECIS compared to untreated cells” value ([8]; danazol 1 μM alone) of the same compound?
A: about 3 hours

Q: And the “enhancement of ECIS (TER) compared to dexamethasone” value ([8]; danazol 1 μM versus dexamethasone 1 μM)?
A: not as great

Q: And the “effect on stress fiber development with TNFα” value ([9]; danazol 0.1 μM or 10 μM, TNFα 50 ng/ml)?
A: decreased the number of cells exhibiting stress fiber development

Q: What about the F-actin staining pattern ([9]; danazol 0.1 μM) of the same compound?
A: diffuse staining throughout the cytoplasm

Q: And the F-actin staining pattern ([9]; danazol 10.0 μM)?
A: stress fibers with multiple focal points

Q: And the “TER at 30 minutes” value ([10]; None 216.22)?
A: 255.26

Q: And the “TER at 120 minutes” value ([10]; None 234.23)?
A: 249.35

Q: What about the “TER at 60 minutes” value ([10]; None 249.25) of the same compound?
A: 267.27

Q: And the “TER at 24 Hours” value ([10]; None 312.31)?
A: 366.37

Q: And the “TER at 5 minutes” value ([11]; None 250.30)?
A: 280.03

Q: And the “TER at 60 minutes” value ([11]; None 251.00)?
A: 313.06

Q: And the “TER at 30 minutes” value ([11]; None 262.31)?
A: 311.56

Q: And the “TER at 24 Hours” value ([11]; None 287.09)?
A: 348.35
